Measurements reported in patent US11052092B2, “N-{[2-(piperidin-1-yl)phenyl](phenyl)methyl}-2-(3-oxo-3,4-dihydro-2H-1,4-benzoxazin-7-yl)acetamide derivatives and related compounds as ROR-gamma modulators for treating autoimmune diseases” (Genfit, priority 2017, dated 2021).

Assays:
MOG-induced EAE mice = test: Experimental Autoimmune Encephalomyelitis (EAE) study; type: in vivo, C57BL/6 mice
Description: 8-10 week old, female C57BL/6 mice were purchased from Janvier Lab (St Berthevin, France) and housed for one week before the start of the studies. EAE was induced by immunization with an emulsion of peptide antigen MOG35-55 (Myelin Oligodendrocyte Glycoprotein) ([…], SEQ ID NO: 1) in complete Freund's Adjuvant (CFA), followed by administration of Pertussis Toxin (PTX) in PBS on the day of immunization and day 1 post immunization, following manufacturer recommendation (Hooke, Kit MOG35-55/CFA Emulsion PTX). Animals were treated with drug beginning 2 days before peptide injection. Animals were randomized into groups for treatment by weight, so that the average weight of each group was similar. The groups were segregated by cage. Compounds according to the invention were suspended in Labrafil (M1944 CS) by sonication and animals were dosed twice daily by gavage with 5 mL/kg body weight. The daily doses of Cpd.24 were 30 and 60 mg/kg (b.i.d.) by gavage. […]
Data are expressed as (FIG. 4A) mean (+/−SEM) of clinical score for each group per day and (FIG. 4B). […]
Statistical evaluation of differences between the experimental groups was determined by using two-way Anova followed by a Bonferroni post test. **p<0.005, Vehicle compared with treatments.

[1] = biological target: T1, RORγt ligand-binding domain (RORγt-LBD) (Homo sapiens, UniProt P51449); test: Time-resolved FRET (TR-FRET) RORγt coactivator assay; details: GST-RORγ-LBD, biotinylated RIP140 peptide, 2 hours at room temperature
T1 construct: 20 nM recombinantly expressed RORγ-LBD fused to GST
T1 sequence (P51449 269-508 limits assumed): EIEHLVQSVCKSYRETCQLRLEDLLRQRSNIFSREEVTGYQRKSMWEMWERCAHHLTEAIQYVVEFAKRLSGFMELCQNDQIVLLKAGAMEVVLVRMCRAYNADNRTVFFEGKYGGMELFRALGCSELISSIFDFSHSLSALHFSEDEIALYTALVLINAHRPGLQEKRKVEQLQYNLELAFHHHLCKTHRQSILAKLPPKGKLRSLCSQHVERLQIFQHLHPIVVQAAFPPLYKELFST
Procedure, shortened: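 GST-tagged RORγt-LBD (20 nM) with 30 nM biotinylated RIP140-derived peptide, streptavidin-terbium and d2 anti-GST in CHAPS buffer (1 mM DTT, 2 mM EDTA, 0.1% BSA), 1% DMSO. Compounds at 0.3 nM–30 μM final, equilibrated 2 h, room temperature, dark. Coactivator displacement lowers the TR-FRET signal; IC50 (μM) and Emax (%) reported.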

MPO activity = MPO activity in ear skin homogenates of the IMQ induced psoriasis study; type: in vivo, C57BL/6 female mice; details: 30 mpk oral, in comparison with IMQ-vehicle group
Method: (§1) 8-10 weeks C57BL/6 female mice received a daily topical dose of 62.5 mg/mouse IMQ cream (Aldara® cream 5%; 3M pharmaceuticals, Sweden) on the shaved back and the right ear for 7 consecutive days. Control mice were treated similarly with a control vehicle cream (Vaseline). Test compound (Cpd 24) was orally administered daily from day 0 to day 7 at 3 mg/mL (30 mg/kg). Test compound was given 8 hours before IMQ application. Mice were killed at day 7, 4 h after the last test compound treatment to analyse skin inflammation parameters.
Ear skin tissue were homogenized in PBS containing a protease inhibitor cocktail (P8340, Sigma-Aldrich) by Ultra Turrax, centrifuged and the supernatant was discarded. The pellet was resuspended in 0.5 mL PBS containing 0.5% hexadecyltrimethyl ammonium bromide (HTAB) and 5 mM ethylene-diamine tetra-acetic acid (EDTA). Following centrifugation, 100 μL of supernatants were placed in test tubes with 200 μL PBS-HTAB-EDTA, 1 mL Hanks' balanced salt solution (HBSS), 100 μL of o-dianisidine dihydrochloride (1.25 mg/mL), and 100 μL H2O2 0.05%. […] The MPO activity was determined as absorbance at 460 nm in comparison with medium.
(§2) Statistical evaluation of differences between the experimental groups was determined by using two-way Anova followed by a Bonferroni post test. *** p<0.001, IMQ-Vehicle compared with treatment.

[2] = system: IMQ induced psoriasis in mice; test: Imiquimod (IMQ) induced psoriasis study, cumulative clinical score; type: in vivo, C57BL/6 female mice
Method: as §1
The severity of inflammation of the back skin was determined using the following criteria. An objective scoring system was developed based on the clinical Psoriasis Area and Severity Index (PASI), except that for the mouse model the affected skin area is not taken into account in the overall score. Erythema, scaling, and thickening were scored independently on a scale from 0 to 4: 0: none; 1: slight; 2: moderate; 3: marked; 4: severe. The cumulative score (erythema plus scaling plus thickening) served as a measure of the severity of inflammation (scale 0-12).
as §2

`Cc1ccc(C(NC(=O)Cc2ccc3c(c2)CC(=O)N3)c2ccc(C)o2)c(N2CCCCC2)c1` (stereo not drawn) [Cpd. 24, N-{[4-methyl-2-(piperidin-1-yl)phenyl](5-methylfuran-2-yl)methyl}-2-(2-oxo-2,3-dihydro-1H-indol-5-yl)acetamide] was tested, and the clinical disease score (MOG-induced EAE mice; by day 15 and maintained through in vivo protocol duration) was “Clinical disease score improvement was apparent”, the “onset of EAE” value (MOG-induced EAE mice; p/os at 60 mg/kg (b.i.d.) for 20 days) was “delay the onset of EAE” and the IC50 [1] was less than 10 nM. The “MPO activity in ear homogenates” value (MPO activity) was “reduced MPO activity”, the adverse effect ([2]; after test compound administration, 30 mg/kg orally daily day 0 to day 7) was “no adverse effect was observed” and the “cumulative score (erythema plus scaling plus thickening)” value ([2]; orally 30 mpk, day 5, compared to control treatment) was “significant decrease”.
